# Test results from patent US20050165102A1, “Compositions and dosage forms for enhanced absorption” (priority 2003, published 2005).
# Counter-ions that a name gives are not always drawn. Like-named read-outs stand apart in the source and are kept apart here.
# Experiments:
# [1] = for Bioavailability: relative to iv gabapentin; for gabapentin plasma concentration rat1: 0 h
# [2] = iv 1 mg/rat, 0 h
# [3] = Flushed ligated colonic model in rats (gabapentin); conditions: for gabapentin plasma concentration Rat1: colonic intubation 10 mg/rat
# Excerpt: The colon was flushed of fecal materials.
# Each segment was observed macroscopically for irritation and any abnormality noted.
# [4] = rat, in vivo, po, 40 mg/kg
smiles,measurement,setting,value
CCCCCCCCCCCCOS(=O)(=O)O.NCC1(CC(=O)O)CCCCC1 [Gabapentin lauryl sulfate],percent bioavailability versus neat drug,"[1]; duodenal, dosage of 20 mg (FIG. 19C)",higher bioavailability than did the neat drug
"NCC1(CC(=O)O)CCCCC1 [Gabapentin, 1-(aminomethyl)cyclohexaneacetic acid, reference compound]",gabapentin plasma concentration Rat1,[2],0 ng/mL
same,Bioavailability,[1]; duodenal 5 mg/rat (14.8 / 14.0 mg/kg),62.5 ± 9.4%
same,Bioavailability,[1]; duodenal 10 mg/rat (30.6 / 29.1 mg/kg),44.2 ± 10.1%
same,Bioavailability,[1]; duodenal 20 mg/rat (59.8 / 58.1 mg/kg),26.2 ± 8.2%
same,gabapentin plasma concentration rat1,[1]; duodenal dose 5 mg/rat,0 ng/mL
same,gabapentin plasma concentration rat1,[1]; duodenal dose 10 mg/rat,0 ng/mL
same,gabapentin plasma concentration rat1,[1]; duodenal dose 20 mg/rat,0 ng/mL
same,gabapentin plasma concentration Rat1,[3]; 0 h,0 ng/mL
same,gabapentin plasma concentration Rat1,[3]; 1 h,189 ng/mL
same,Bioavailability,"[3]; colonic, percent of intravenous administration",4.9%
same,macroscopic observation of colonic mucosa for irritation,[3]; excised colonic segments after 4 hour test period,no histopathological change visible to the naked eye
"CN(C)C(=N)N=C(N)N [Metformin HCl, metformin hydrochloride, reference compound]",time of plasma concentration maximum after treatment,[4],about 1 hour
CCCCCCCCCCCC(=O)O.CN(C)C(=N)N=C(N)N [Metformin laurate],time of plasma concentration maximum after treatment,[4],about 1 hour
